Results reported in BindingDB's records for doi:10.1016/j.bmcl.2010.01.042 (Bristol Myers Squibb, 2010).
pIC50: −log10 of the molar value.

Biological target: Insulin-like growth factor 1 receptor (Homo sapiens) (UniProt P08069)
Test: Inhibition of IGFR1

Insulin-like growth factor 1 receptor (Homo sapiens), sequence (P08069 whole entry, looked up): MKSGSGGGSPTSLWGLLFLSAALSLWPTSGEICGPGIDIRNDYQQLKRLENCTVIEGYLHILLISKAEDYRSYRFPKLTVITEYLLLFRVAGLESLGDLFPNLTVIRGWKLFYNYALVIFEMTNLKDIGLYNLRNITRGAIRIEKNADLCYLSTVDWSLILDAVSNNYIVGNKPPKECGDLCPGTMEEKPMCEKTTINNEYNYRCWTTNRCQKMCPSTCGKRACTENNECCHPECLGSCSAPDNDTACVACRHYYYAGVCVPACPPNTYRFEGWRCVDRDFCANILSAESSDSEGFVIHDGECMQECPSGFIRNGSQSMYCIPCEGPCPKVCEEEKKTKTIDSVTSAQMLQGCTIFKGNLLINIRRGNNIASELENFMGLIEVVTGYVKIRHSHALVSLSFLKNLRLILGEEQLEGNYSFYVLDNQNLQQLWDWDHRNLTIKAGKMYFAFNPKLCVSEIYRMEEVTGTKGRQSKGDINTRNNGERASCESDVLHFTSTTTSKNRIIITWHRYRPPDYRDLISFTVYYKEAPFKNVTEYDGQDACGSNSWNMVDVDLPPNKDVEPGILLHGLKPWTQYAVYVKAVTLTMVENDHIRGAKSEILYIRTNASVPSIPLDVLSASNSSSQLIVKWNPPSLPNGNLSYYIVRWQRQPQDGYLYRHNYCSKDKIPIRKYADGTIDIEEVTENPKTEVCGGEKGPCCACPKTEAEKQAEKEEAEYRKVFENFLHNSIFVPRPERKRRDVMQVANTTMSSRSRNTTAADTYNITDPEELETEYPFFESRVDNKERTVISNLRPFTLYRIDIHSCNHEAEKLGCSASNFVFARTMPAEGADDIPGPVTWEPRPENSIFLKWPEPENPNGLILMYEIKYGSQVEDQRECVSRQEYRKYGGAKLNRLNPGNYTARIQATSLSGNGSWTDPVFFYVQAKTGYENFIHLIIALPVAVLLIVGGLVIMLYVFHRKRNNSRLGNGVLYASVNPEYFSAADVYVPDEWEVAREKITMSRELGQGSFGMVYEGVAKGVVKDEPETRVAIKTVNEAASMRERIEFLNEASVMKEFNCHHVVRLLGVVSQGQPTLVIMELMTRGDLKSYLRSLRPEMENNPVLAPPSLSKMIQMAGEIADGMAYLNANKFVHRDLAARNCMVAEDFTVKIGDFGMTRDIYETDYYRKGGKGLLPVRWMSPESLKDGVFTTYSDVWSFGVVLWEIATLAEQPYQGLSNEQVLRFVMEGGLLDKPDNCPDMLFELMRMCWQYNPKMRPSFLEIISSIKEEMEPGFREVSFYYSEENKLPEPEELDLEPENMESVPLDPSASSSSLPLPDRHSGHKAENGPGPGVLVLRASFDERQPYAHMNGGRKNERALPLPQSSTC

pIC50: < 4.30
SMILES: O=C(Nc1ccc(F)cc1F)c1cccnc1Nc1ccc(Oc2ccnc3[nH]ccc23)c(F)c1 [2-(4-(1H-pyrrolo[2,3-b]pyridin-4-yloxy)-3-fluorophenylamino)-N-(2,4-difluorophenyl)nicotinamide]
